The text below walks through data of publication PMC12865480 (Pharmaceuticals, 2025).

For orientation: Ki means the equilibrium dissociation constant of an inhibitor or competing ligand from its target. In general, inhibition refers to how much of the control response was suppressed. As usually defined, the logD is the decadic logarithm of the distribution of all forms, ionised or not, between an organic phase and buffer at a given pH. Lower therefore signals lower lipophilicity.

Data set [1] addresses PCP binding site of the NMDA receptor. The note with it: earlier study; cited from earlier work.
In data set [2] the target is T1, σ1 receptor (Cavia porcellus, UniProt Q60492). The conditions noted are these: earlier study; cited from earlier work.
T1 sequence (Q60492 whole entry): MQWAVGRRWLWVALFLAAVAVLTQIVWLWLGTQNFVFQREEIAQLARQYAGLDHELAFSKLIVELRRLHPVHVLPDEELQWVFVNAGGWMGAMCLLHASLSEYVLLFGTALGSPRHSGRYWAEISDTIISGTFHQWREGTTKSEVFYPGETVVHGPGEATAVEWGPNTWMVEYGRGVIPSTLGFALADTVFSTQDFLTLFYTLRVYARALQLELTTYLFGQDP
Data set [3] deals with capsaicin mouse model of neuropathic pain. The note with it: dose of 0.25 mg/kg body weight; cited from earlier work.
Another data set has as its target T2, σ2 receptor (Rattus norvegicus, UniProt Q5U3Y7).
T2 sequence (Q5U3Y7 1-176): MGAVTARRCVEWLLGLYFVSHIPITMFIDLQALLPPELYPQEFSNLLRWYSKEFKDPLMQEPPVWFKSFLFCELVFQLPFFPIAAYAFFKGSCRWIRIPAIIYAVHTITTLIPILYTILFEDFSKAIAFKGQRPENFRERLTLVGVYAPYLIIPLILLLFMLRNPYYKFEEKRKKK
In words: biochemical. Format: binding. The conditions noted are these: read-out: Ki ± SEM σ2.

Data set [4] concerns the target PCP binding site of the NMDA receptor. In words: PCP binding site assay, radioligand [3H](+)-MK-801, pig brain preparations. The note with it: n = 3, values without SEM mean of two experiments.
Another data set concerns the target µ-opioid receptor (Cavia porcellus, UniProt A0ACM8Q262). In words: µ-opioid receptor binding study. The conditions noted are these: read-out: inhibition of the radioligand binding, µ receptor.
In the next data set the target is δ-opioid receptor (Rattus norvegicus, UniProt P33533). In words: δ-opioid receptor binding study. The conditions noted are these: read-out: inhibition of the radioligand binding, δ receptor.
δ-opioid receptor, sequence (P33533 whole entry): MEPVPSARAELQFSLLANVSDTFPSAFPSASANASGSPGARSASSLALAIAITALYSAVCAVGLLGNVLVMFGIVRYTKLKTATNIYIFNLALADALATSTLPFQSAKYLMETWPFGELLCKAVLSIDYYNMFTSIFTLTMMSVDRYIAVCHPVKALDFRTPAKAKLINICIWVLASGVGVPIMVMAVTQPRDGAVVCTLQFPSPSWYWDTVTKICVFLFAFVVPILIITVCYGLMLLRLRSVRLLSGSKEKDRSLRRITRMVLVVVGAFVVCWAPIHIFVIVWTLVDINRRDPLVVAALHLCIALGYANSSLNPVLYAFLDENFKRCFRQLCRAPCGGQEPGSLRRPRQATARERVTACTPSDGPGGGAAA
Data set [5] addresses T1, σ1 receptor. The experiment in a line: biochemical.
Data set [6] concerns the target T3, ifenprodil binding site of NMDA receptors with GluN2B subunit (Homo sapiens, UniProt Q05586+Q13224).
T3 construct: expressed in transfected cells; host or cells: mouse L(tk-) cells, stably transfected, expression induced with dexamethasone; membrane homogenate
In words: biochemical.

Data set [7] has as its target T1, σ1 receptor. The conditions noted are these: for σ1:σ2 receptor selectivity: σ1 over σ2.
A short description of the next data set: physchem. The conditions noted are these: pH 7.4.
The target of another data set is κ-opioid receptor (Cavia porcellus, UniProt P41144). The experiment in a line: κ-opioid receptor binding study. The conditions noted are these: read-out: inhibition of the radioligand binding, κ receptor.
κ-opioid receptor, sequence (P41144 whole entry): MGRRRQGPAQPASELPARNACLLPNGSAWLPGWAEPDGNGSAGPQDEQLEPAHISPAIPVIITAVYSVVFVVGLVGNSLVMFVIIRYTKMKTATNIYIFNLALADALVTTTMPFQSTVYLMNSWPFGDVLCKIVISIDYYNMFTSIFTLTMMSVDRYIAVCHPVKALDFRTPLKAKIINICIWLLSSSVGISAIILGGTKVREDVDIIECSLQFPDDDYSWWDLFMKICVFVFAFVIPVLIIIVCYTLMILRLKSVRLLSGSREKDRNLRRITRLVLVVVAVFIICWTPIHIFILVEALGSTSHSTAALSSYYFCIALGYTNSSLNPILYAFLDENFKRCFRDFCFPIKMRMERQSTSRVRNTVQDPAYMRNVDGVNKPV
For data set [8] the following is noted: after 90 min incubation with mouse liver microsomes and NADPH. (Liver microsomes are a subcellular fraction often used to study metabolism.)

Where “and” joins values, the source holds several entries; their conditions need not be identical. Equal values may be shown once. Read-outs that look alike come from different tables or passages of the source.

T3 sequence (Q13224 27-1484, other chains not shown): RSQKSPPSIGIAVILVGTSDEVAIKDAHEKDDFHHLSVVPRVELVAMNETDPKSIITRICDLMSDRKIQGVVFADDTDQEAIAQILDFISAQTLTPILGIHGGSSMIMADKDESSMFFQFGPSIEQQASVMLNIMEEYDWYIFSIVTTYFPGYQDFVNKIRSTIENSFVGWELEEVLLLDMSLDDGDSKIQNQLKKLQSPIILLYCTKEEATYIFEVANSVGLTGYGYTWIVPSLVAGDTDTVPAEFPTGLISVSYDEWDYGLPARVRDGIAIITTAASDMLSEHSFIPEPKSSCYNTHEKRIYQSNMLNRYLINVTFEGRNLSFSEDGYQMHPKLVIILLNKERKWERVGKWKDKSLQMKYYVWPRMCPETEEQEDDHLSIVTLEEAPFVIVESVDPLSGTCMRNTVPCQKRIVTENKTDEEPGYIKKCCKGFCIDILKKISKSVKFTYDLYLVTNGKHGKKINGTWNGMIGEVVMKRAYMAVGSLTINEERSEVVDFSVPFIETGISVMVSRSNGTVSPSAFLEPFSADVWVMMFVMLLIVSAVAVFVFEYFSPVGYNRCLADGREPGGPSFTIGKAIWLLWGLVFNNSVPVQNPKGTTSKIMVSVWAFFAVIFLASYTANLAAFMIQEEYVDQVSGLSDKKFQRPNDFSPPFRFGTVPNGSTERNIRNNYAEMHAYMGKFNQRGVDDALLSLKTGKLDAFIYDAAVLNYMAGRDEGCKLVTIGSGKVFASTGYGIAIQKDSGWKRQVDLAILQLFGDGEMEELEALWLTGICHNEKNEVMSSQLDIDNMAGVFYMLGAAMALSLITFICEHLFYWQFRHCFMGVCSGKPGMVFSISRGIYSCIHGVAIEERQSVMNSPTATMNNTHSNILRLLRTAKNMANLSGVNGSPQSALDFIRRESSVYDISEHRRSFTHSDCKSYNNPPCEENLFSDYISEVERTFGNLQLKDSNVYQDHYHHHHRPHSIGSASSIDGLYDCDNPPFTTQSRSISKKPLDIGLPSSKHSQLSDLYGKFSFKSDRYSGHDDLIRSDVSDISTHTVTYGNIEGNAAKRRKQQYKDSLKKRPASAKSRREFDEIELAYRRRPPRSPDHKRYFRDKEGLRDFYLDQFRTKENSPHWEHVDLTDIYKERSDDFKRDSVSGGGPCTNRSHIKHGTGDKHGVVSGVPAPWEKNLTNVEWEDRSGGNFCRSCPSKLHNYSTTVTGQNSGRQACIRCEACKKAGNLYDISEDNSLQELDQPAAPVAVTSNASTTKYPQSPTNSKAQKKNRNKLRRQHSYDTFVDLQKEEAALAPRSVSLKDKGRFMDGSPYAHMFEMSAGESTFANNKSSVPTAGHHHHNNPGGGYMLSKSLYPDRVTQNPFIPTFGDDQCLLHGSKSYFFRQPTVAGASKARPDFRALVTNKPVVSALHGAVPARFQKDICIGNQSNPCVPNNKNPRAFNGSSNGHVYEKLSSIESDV
µ-opioid receptor, sequence (A0ACM8Q262 1-400): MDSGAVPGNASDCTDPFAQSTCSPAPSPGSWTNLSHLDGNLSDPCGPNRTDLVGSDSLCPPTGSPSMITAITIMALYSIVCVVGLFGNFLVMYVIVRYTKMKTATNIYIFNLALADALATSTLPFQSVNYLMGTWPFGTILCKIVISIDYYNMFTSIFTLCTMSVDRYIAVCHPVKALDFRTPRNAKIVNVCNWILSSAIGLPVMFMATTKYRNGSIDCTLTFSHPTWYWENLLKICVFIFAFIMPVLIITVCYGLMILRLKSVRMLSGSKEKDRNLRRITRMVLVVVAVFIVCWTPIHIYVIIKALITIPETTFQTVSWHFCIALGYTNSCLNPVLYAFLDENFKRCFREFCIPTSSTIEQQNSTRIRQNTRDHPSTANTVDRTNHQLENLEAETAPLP

Turning to `CCC1(c2ccccc2)OCCC(CCN)O1` (centres unmarked) [2a], the Ki is 0.019 µM in data set [1] and 0.955 µM on σ1 receptor [2].
In the case of `CC[C@]1(c2ccccc2)OC[C@H]([C@@H]2CCCCN2)O1` [etoxadrol], in data set [1], the Ki is 0.022 µM.
As for `c1ccc(CNCCC2CCOC(c3ccccc3)O2)cc1` (centres unmarked) [compound 1], the analgesic activity in data set [3] was 70%.
As for `CC[C@]1(c2ccccc2)OCC[C@H](CCCCN(C)Cc2ccccc2)O1` (relative stereo) [18b, N-Benzyl-4-(trans-2-ethyl-2-phenyl-1,3-dioxan-4-yl)-N-methyl-butan-1-amine], the Ki at σ2 receptor was 0.024 ± 0.0063 µM; in data set [4], more than 1 µM; at σ1 receptor [5] (Ki ± SEM σ1) it was 0.0087 ± 0.0036 µM; at σ1 receptor [5] (pKi(σ1)), 0.00871 µM; in data set [6], 0.02 ± 0.0033 µM. The inhibition at 1 µM at µ-opioid receptor, on δ-opioid receptor and at κ-opioid receptor was 0% each time. Also, the “LLE (ligand-lipophilicity efficiency)” value on σ1 receptor [7] was determined as 4.52. In addition, the “σ1:σ2 receptor selectivity” value on σ1 receptor [7] is 3 fold. The compound also registered a logD in “physchem” of 3.54 ± 0.06. Moreover, in data set [8], the “Metabolic Stability (5): amount of the remaining unmetabolized parent compound” value was 36% and 36 ± 1%.
Regarding `CN(CCCC[C@H]1CCO[C@@H](c2ccccc2)O1)Cc1ccccc1` (relative stereo) [18a, N-Benzyl-N-methyl-4-(cis-2-phenyl-1,3-dioxan-4-yl)butan-1-amine], the Ki on σ2 receptor is 0.031 ± 0.0031 µM; in data set [4], more than 1 µM; at σ1 receptor [5] (Ki ± SEM σ1), 0.0063 ± 0.0024 µM; on σ1 receptor [5] (pKi(σ1)) it was 0.00631 µM; in data set [6] (read-out: Ki ± SEM GluN2B), 0.261 ± 0.054 µM. In addition, the inhibition at 1 µM at µ-opioid receptor, at δ-opioid receptor and at κ-opioid receptor was 0% each time. Further, the “LLE (ligand-lipophilicity efficiency)” value at σ1 receptor [7] worked out at 5.71. Besides, at σ1 receptor [7], the “selectivity for the σ1 receptor against the ifenprodil binding site” value is given as more than 40 fold. The “σ1:σ2 receptor selectivity” value on σ1 receptor [7] came to 5 fold. In “physchem”, this compound registered a logD of 2.49 ± 0.05. The “Metabolic Stability (5): amount of the remaining unmetabolized parent compound” value in data set [8] is listed as 48 ± 4%.
